These results are taken from patent US20260115185A1, “QUINOLINE DERIVATIVES WHICH ACT AS KAPPA-OPIOID RECEPTOR ANTAGONISTS” (The Scripps Research Institute, priority 2023, published 2026).

The IC50 is the concentration needed to halve the response being measured. A high value points to weaker potency in that assay.

In one experiment the target is T1, mu opioid receptor (MOR) (Homo sapiens, UniProt P35372).
T1 construct: host or cells: U2OS (Discover X OPRMu1-U2OS, PathHunter)
Kind of experiment: OPRMu1 Discover X β-arrestin Assay, antagonist mode (U2OS cells, DAMGO EC80 challenge). Format: cell-based. A digest of the protocol: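 PathHunter U2OS cells with β-gal fragment-complementation readout for β-arrestin recruitment to OPRMu1. Cells were preincubated with compound (10-point, 1:3 series from nominal 10 micromolar) for 30 min at 37 °C, then challenged with 303 nM DAMGO (EC80) for 3 h. Luminescence gave percent inhibition.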

Experiment [1] addresses T2, kappa opioid receptor (KOR) (Homo sapiens, UniProt P41145).
T2 construct: host or cells: U2OS (Tango OPRK1-bla U2OS)
Kind of experiment: OPRKappa 1 Tango B-Arrestin Assay, antagonist mode (Tango OPRK1-bla U2OS cells, U50488 EC80 challenge). Type of experiment: cell-based. To be noted: for Selectivity (MOR/KOR): Kappa selectivity, MOR IC50 / KOR IC50; for IC50: antagonist mode, Tango OPRK1-bla U2OS cells, 6 nM U50488 challenge. The essentials: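 Tango OPRK1-bla U2OS cells, β-arrestin recruitment read as β-lactamase FRET (CCF4-AM, 460/590 nm emission). Compounds, 10-point 1:3 series from nominal 10 µM in quadruplicate, preincubated 30 min at 37 °C, then challenged with U50488 at 6 nM final (EC80) for 4 h; percent inhibition from median ratio.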

T1 sequence (P35372 whole entry): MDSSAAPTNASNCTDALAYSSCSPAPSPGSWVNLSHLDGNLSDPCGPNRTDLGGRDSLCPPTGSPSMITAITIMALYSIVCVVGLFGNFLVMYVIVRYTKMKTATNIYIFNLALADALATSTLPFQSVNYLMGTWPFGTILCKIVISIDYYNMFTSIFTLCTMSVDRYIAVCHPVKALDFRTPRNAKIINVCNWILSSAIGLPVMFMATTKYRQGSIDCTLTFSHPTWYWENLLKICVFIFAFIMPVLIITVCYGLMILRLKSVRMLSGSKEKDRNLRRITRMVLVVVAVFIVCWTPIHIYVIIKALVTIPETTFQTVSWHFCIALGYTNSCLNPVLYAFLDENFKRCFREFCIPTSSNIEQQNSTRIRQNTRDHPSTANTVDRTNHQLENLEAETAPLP
T2 sequence (P41145 whole entry): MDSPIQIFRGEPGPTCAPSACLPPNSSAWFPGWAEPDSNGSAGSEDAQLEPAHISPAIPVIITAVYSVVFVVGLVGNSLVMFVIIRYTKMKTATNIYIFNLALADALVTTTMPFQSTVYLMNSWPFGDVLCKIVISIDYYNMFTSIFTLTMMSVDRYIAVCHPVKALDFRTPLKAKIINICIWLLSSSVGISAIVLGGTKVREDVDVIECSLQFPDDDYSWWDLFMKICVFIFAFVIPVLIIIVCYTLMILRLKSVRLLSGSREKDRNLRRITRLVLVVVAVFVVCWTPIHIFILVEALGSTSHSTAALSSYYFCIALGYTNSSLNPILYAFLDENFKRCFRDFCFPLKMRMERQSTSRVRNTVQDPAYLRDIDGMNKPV

Turning to `CCc1cc(F)c2nc(N3CC[C@@H](N[C@@H]4CCOC4)[C@H](F)C3)c(-c3ccn(C)n3)c(C)c2c1` [Compound 196, (3R,4R)-1-(6-ethyl-8-fluoro-4-methyl-3-(1-methyl-1H-pyrazol-3-yl)quinolin-2-yl)-3-fluoro-N—((R)-tetrahydrofuran-3-yl)piperidin-4-amine], the IC50 was more than 1 µM against mu opioid receptor (MOR) and 0.001 to 0.01 µM in experiment [1]. In addition, in experiment [1], the “Selectivity (MOR/KOR)” value is “+++ (between 100- to 1000-fold selective)”.

With `CCc1cc(F)c2nc(N3CCN(C(C)C4CCOCC4)C[C@H]3C)c(-c3nc(C)no3)c(C)c2c1` (stereo partly drawn) [Compound 199, 5-(6-ethyl-8-fluoro-4-methyl-2-((2R)-2-methyl-4-(1-(tetrahydro-2H-pyran-4-yl)ethyl)piperazin-1-yl)quinolin-3-yl)-3-methyl-1,2,4-oxadiazole], the IC50 at mu opioid receptor (MOR) was more than 1 µM. In experiment [1], the “Selectivity (MOR/KOR)” value was “++++ (more than 1000-fold selectivity over MOR)” and the IC50 fell in the range of 0.01 to 0.1 µM.

`CCc1cc(F)c2nc(N3CCN(C(=O)[C@H]4CC(F)(F)CCN4)C[C@H]3C)c(-c3nc(C)no3)c(C)c2c1` [Compound 200]: the IC50 against mu opioid receptor (MOR) was more than 1 µM. Further, in experiment [1], the “Selectivity (MOR/KOR)” value was “+++ (between 100- to 1000-fold selective)” and the IC50 is 0.001 to 0.01 µM.

The compound `CCc1cc(F)c2nc(N3CCN(C(=O)[C@H](C)N4CCCC4)C[C@H]3C)c(-c3nc(C)no3)c(C)c2c1` [Compound 201] yielded an IC50 on mu opioid receptor (MOR) of 0.1 to 1 µM. Moreover, in experiment [1], the “Selectivity (MOR/KOR)” value is “+++ (between 100- to 1000-fold selective)” and the IC50 lay within 0.001 to 0.01 µM.

Compound `CCc1cc(F)c2nc(N3CCN(C[C@H]4CCOC4)C[C@H]3C)c(-c3nc(C)no3)c(C)c2c1` [Compound 202] had an IC50 against mu opioid receptor (MOR) of more than 1 µM. Moreover, in experiment [1], the “Selectivity (MOR/KOR)” value is reported as “++++ (more than 1000-fold selectivity over MOR)” and the IC50 fell in the range of 0.001 to 0.01 µM.

Consider `CCc1cc(F)c2nc(N3CCN(C[C@@H]4CCOC4)C[C@H]3C)c(-c3nc(C)no3)c(C)c2c1` [Compound 203], for which the IC50 against mu opioid receptor (MOR) was more than 1 µM. Besides, in experiment [1], the “Selectivity (MOR/KOR)” value is “+++ (between 100- to 1000-fold selective)” and the IC50 was in the range of 0.01 to 0.1 µM.

In the case of `CCc1cc(F)c2nc(N3CC[C@@H](NC[C@@H]4CCOC4)[C@@H](F)C3)c(-c3ccn(C)n3)c(C)c2c1` [Compound 204], the IC50 against mu opioid receptor (MOR) fell in the range of 0.1 to 1 µM. Further, in experiment [1], the “Selectivity (MOR/KOR)” value is “++++ (more than 1000-fold selectivity over MOR)” and the IC50 was less than 0.001 µM.

As for `CCc1cc(F)c2nc(N3CCN(C(=O)[C@H]4CC(F)(F)CCN4C)C[C@H]3C)c(-c3nc(C)no3)c(C)c2c1` [Compound 205, ((R)-4,4-difluoro-1-methylpiperidin-2-yl)((R)-4-(6-ethyl-8-fluoro-4-methyl-3-(3-methyl-1,2,4-oxadiazol-5-yl)quinolin-2-yl)-3-methylpiperazin-1-yl)methanone], the concentration for half-maximal inhibition (IC50) against mu opioid receptor (MOR) is more than 1 µM. Further, in experiment [1], the “Selectivity (MOR/KOR)” value is given as “+++ (between 100- to 1000-fold selective)” and the IC50 fell in the range of 0.001 to 0.01 µM.

In turn, `CCc1cc(F)c2nc(N3CCN(CC4(O)CCOCC4)C[C@H]3C)c(-c3nc(C)no3)c(C)c2c1` [Compound 206] came in with an IC50 against mu opioid receptor (MOR) of more than 1 µM. Also, in experiment [1], the “Selectivity (MOR/KOR)” value is listed as “++++ (more than 1000-fold selectivity over MOR)” and the IC50 is 0.001 to 0.01 µM.

With `CCc1cc(F)c2nc(N3CCN(CC4(F)CCOCC4)C[C@H]3C)c(-c3nc(C)no3)c(C)c2c1` [Compound 207, (R)-5-(6-ethyl-8-fluoro-2-(4-((4-fluorotetrahydro-2H-pyran-4-yl)methyl)-2-methylpiperazin-1-yl)-4-methylquinolin-3-yl)-3-methyl-1,2,4-oxadiazole], on mu opioid receptor (MOR), the IC50 was more than 1 µM. Besides, in experiment [1], the “Selectivity (MOR/KOR)” value is listed as “++++ (more than 1000-fold selectivity over MOR)” and the IC50 lay within 0.001 to 0.01 µM.
